Patent US6924289B2, “Benzyl(Idene)-lactam derivatives, their preparation and their use as selective (ANT) agonists of 5-HT1A- and/or 5-HT1D receptors” (Pfizer Inc, priority 1996, dated 2005)
Counter-ions that a name gives are not always drawn.

| SMILES | melting point |
| --- | --- |
| CN1CCN(c2cccc(F)c2C=C2CCN(c3ccc(Cl)c(Cl)c3)C2=O)CC1 [Example 20, 1-(3,4-Dichlorophenyl)-3-[2-fluoro-6-(4-methylpiperazin-1-yl)-benzylidene]-pyrrolidin-2-one] | 170 to 171 °C |
| CN1CCN(c2ccccc2C=C2CCCN(c3ccc(Cl)cc3)C2=O)CC1 [Example 11, 1-(4Chlorophenyl)-3-[2-(4-methylpiperazin-1-yl)-benzylidene]-piperidin-2-one] | 177 to 178 °C |
| CN1CCN(c2ccc(F)cc2C=C2CCN(Cc3ccc(Cl)cc3)C2=O)CC1 [Example 24, 1-(4-Chlorobenzyl)-3-[5-fluoro-2-(4-methylpiperazin-1-yl)-benzylidene]-pyrrolidin-2one] | 131 to 132 °C |
| CN1CCN(c2ccccc2C=C2C(=O)N(C)c3ccccc32)CC1.Cl.O (hydrate or solvate) | 120 °C (dec.) |
| CN1CCN(c2ccccc2C=C2CCN(c3ccc(Cl)cc3)C2=O)CC1 [Example 18, 1-(4-Chlorophenyl)-3-[2-(4-methylpiperazin-1-yl)-benzylidene]-pyrrolidin-2-one] | 188 to 190 °C |
| CN1CCN(c2ccccc2CC2CCCN(c3ccc(Cl)c(Cl)c3)C2=O)CC1.Cl (stereo not drawn) | 106 to 108 °C |
| CN1CCN(c2ccc(F)cc2C=C2CCCN(c3ccc(Cl)c(Cl)c3)C2=O)CC1 [Example 14, 1-(3,4-Dichlorophenyl)-3-[5-fluoro-2-(4methylpiperazin-1-yl)-benzylidene]-piperidin-2-one] | 161 to 162 °C |
| CN1CCN(c2ccc(F)cc2CC2CCCN(c3ccc(Cl)c(Cl)c3)C2=O)CC1.Cl (stereo not drawn) | 83 to 85 °C |
| CN1CCN(c2cc(F)ccc2C=C2CCN(c3ccccc3)C2=O)CC1 [Example 19, 3-[4Fluoro-2-(4-methylpiperazin-1-yl)-benzylidene]-1-phenylpyrrolidin-2-one] | 199 to 200.5 °C |
| Cc1ccc(N2CCN(C)CC2)c(C=C2CCN(c3ccc(Cl)c(Cl)c3)C2=O)c1 [Example 28, 1-(3,4-Dichlorophenyl)-3-[5-methyl-2-(4-methylpiperazin-1-yl)-benzylidene]-pyrrolidin-2one] | 149 to 150 °C |
| CN(C)CCOc1ccccc1C=C1CCN(c2ccc(Cl)c(Cl)c2)C1=O (as salt: HCl) [Example 27, 1-(3,4-Dichlorophenyl)-3-[2-(2-dimethylaminoethoxy)-benzylidene]-pyrrolidin-2one] | 111 to 112 °C |
| CN1CCN(c2ccccc2C=C2CCCN(c3ccc(Cl)c(Cl)c3)C2=O)CC1 [Example 12, 1-(3,4-Dichlorophenyl)-3-[2-(4-methylpiperazin-1-yl)-benzylidene]-piperidin-2-one] | 138 to 139.5 °C |
| CN1CCN(c2ccccc2CC2CCN(c3ccc(F)c(F)c3)C2=O)CC1 (stereo not drawn) [Example 29, 1-(3,4-Difluorophenyl)-3-[2-(4-methylpiperazin-1-yl)-benzyl]-pyrrolidin-2-one] | 130 to 131 °C |
| CN1CCN(c2ccc(F)cc2C=C2CCCN(CCc3ccc(Cl)cc3)C2=O)CC1 [Example 22, 1-[2-(4Chlorophenyl)ethyl]-3-[5-fluoro-2-(4-methylpiperazin-1-yl)-benzylidene]-piperidin-2-one] | 88 to 90 °C |
| CN1CCN(c2ccccc2C=C2CCN(c3ccccc3)C2=O)CC1 [Example 15, 3-[2-(4-Methylpiperazin-1-yl)-benzylidene]-1 phenylpyrrolidin-2-one] | 178 to 179.5 °C |
| CN1CCN(c2ccc(F)cc2C=C2CCCN(c3ccc(Cl)cc3)C2=O)CC1 [Example 13, 1-(4-Chlorophenyl)-3-[5-fluoro-2-(4-methylpiperazin-1-yl)-benzylidene]-piperidin-2-one] | 158 to 159 °C |
| CN1CCN(c2ccccc2C=C2CCN(Cc3ccc(Cl)cc3)C2=O)CC1 [Example 23, 1-(4-Chlorobenzyl)-3-[2-(4-methylpiperazin-1-yl)-benzylidene]-pyrrolidin-2-one] | 129 to 130 °C |
| CN1CCN(c2ccccc2C=C2CCN(c3ccc(C(F)(F)F)cc3)C2=O)CC1 [Example 16, 3-[2-(4-Methylpiperazin-1-yl)-benzylidene]-1-(4-trifluoromethylphenyl)-pyrrolidin-2-one] | 185 to 186.5 °C |
| CN1CCN(c2ccccc2C=C2CCN(c3ccc(C(F)(F)F)cc3)C2=O)CC1 (as salt: hydrochloride) (hydrate or solvate) [Example 16, 3-[2-(4-Methylpiperazin-1-yl)-benzylidene]-1-(4-trifluoromethylphenyl)-pyrrolidin-2-one] | 181 to 183 °C |
| CN1CCN(c2ccccc2CC2CCN(c3ccccc3)C2=O)CC1 (stereo not drawn) [Example 30, 3-[2-(4-Methylpiperazin-1-yl)-benzyl]-1-phenyl-pyrrolidin-2-one] | 104 to 105.5 °C |
| CN1CCN(c2ccc(F)cc2C=C2CCCN(c3ccc(F)c(F)c3)C2=O)CC1 [Example 21, 1-(3,4-Difluorophenyl)-3-[5-fluoro-2(4-methylpiperazin-1-yl)-benzylidene]-piperidin-2-one] | 168 to 170 °C |
